The values below come from patent US10744104B2, “Neprilysin inhibitors” (THERAVANCE BIOPHARMA R&D IP, LLC, priority 2011, dated 2020).

The structures appear in SMILES notation.

In assay [1] the target is T1, NEP (Homo sapiens (Human), UniProt P08473). As to the kind of experiment: Assay 1: in vitro enzyme inhibition assay at human NEP (fluorogenic peptide substrate). Format: biochemical. The conditions noted are these: for pKi: comparative examples, exact values.
Protocol: The assays were performed in 384-well white opaque plates at 37° C. using the fluorogenic peptide substrates at a concentration of 10 μM in Assay Buffer (NEP: 50 mM HEPES, pH 7.5, 100 mM NaCl, 0.01% polyethylene glycol sorbitan monolaurate (Tween-20), 10 μM ZnSO4; ACE: 50 mM HEPES, pH 7.5, 100 mM NaCl, 0.01% Tween-20, 1 μM ZnSO4).
Test compounds were assayed over the range of concentrations from 10 μM to 20 pM. Test compounds were added to the enzymes and incubated for 30 minute at 37° C. prior to initiating the reaction by the addition of substrate. Reactions were terminated after 20 minutes of incubation at 37° C. by the addition of glacial acetic acid to a final concentration of 3.6% (v/v).
Inhibition constants were obtained by nonlinear regression of the data using the equation (GraphPad Software, Inc., San Diego, Calif.): v=v0/[1+(I/K′)] where v is the reaction rate, v0 is the uninhibited reaction rate, I is the inhibitor concentration and K′ is the apparent inhibition constant.
Assay [2] addresses T1, NEP. The settings on record: change of carboxylic acid chain length versus succinic acid compound 21a; cited from earlier work.

For orientation: Ki means a measure of affinity in units of concentration, obtained from inhibition or displacement. Compound `O=C(N[C@H](Cc1ccc(-c2cccc(Cl)c2)cc1)C[C@@H](O)C(=O)O)C(=O)OCCC(F)(F)F` [Example 2N, (2R,4R)-5-(3′-Chlorobiphenyl-4-yl)-2-hydroxy-4-[(3,3,3-trifluoropropoxyoxalyl)-amino]pentanoic Acid] showed a Ki on NEP [1] (reported as ranges) of no more than 1 nM.

By pKi is commonly meant −log10 of the Ki, conventionally taken in molar units. Read a high pKi as a small Ki. In the case of `O=C(O)CCCC(=O)N[C@H](Cc1ccc(-c2ccccc2)cc1)CC(O)C(=O)O` (stereo partly drawn) [Comparative Compound E, (R)-5-Biphenyl-4-yl-4-(4-carboxybutrylamino)-2-hydroxypentanoic Acid], the pKi on NEP [1] came to 7.3.

Turning to `C[C@H](CC(Cc1ccc(-c2ccccc2)cc1)NC(=O)CC(=O)O)C(=O)O` (stereo partly drawn) [Example 21g], the “decrease in activity relative to 21a” value at NEP [2] is 18 fold.

For the compound `C[C@H](C[C@@H](Cc1ccc(-c2ccccc2)cc1)NC(=O)CCCCC(=O)O)C(=O)O` [Example 21f], at NEP [2], the “decrease in activity relative to 21a” value is 65 fold.

With `C[C@H](C[C@@H](Cc1ccc(-c2ccccc2)cc1)NC(=O)CCCC(=O)O)C(=O)O` [Example 21e], the “decrease in activity relative to 21a” value at NEP [2] is on record as 18 fold.

`O=C(O)CCCC(=O)N[C@H](Cc1ccc(-c2ccccc2)cc1)C[C@@H](CO)C(=O)O` [Comparative Compound H, (2S,4S)-5-Biphenyl-4-yl-4-(4-carboxy-butyrylamino)-2-hydroxmethylpentanoic Acid]: the negative logarithm of the Ki (pKi) on NEP [1] stood at 8.6.
